Measured values reported in US4709027A, “Bicyclic spirosulfonimides with psychotropic activity” (American Home Products Corporation, priority 1986, dated 1987).
Read-outs that look alike come from different tables or passages of the source. One block for each molecule: values may come before it.

What was measured:
[1] = conditioned avoidance (discrete trial) test; assay type: in vivo, male CD rats; settings: Rattus norvegicus, po, rats, read-out: AB50 (dose producing 50% block in avoidance responding), discrete trial
Description: The antipsychotic activity of the compounds of the invention is assessed via the conditioned avoidance (discrete trial) test. This test has excellent clinical correlation for antipsychotic activity.
Male CD rats (Charles River) maintained at approximately 400-450 gm body weight are used. Rats trained previously are placed in plexiglass experimental chambers equipped with a response lever, house light, and sonalert. A steel grid floor is wired for presentation of electric shock. Each trial consists of a fifteen-second warning tone (conditioned stimulus), continuing for an additional fifteen seconds accompanied by electric shock, (unconditioned stimulus). The rat can terminate a trial at any point by depression of the response lever. […]
The following experimental parameters are recorded by computer; (1) the number of interval responses, (2) the number of avoidance responses, (3) the number of escape responses, and (4) the number of trials in which no response occurred.
Response counts are summed over all subjects at a given dose. […] This number is expressed as a percentage of the total trials. Control performance is arbitrarily assigned a value of 100% for avoidance and the dose calculated to produce a 50% block in avoidance responding (AB50) is obtained from a dose-effect regression line fitted by the method of least squares. […]

[2] = conditioned avoidance (shelf-jump response) test; assay type: in vivo, male CD rats; settings: i.p., rats
Description: A test designed to determine the potential antipsychotic activity of the compounds of the invention is the conditioned avoidance (shelf-jump response) test.
Male CD rats (Charles River) maintained at approximately 400-450 gm body weight are used. […] A moveable wall, controlled by a motor, determines whether the rat has access to the shelf at any time during the experiment. The experimental chamber also contains a house light and sonalert. A steel grid floor in the main chamber is wired for presentation of electric shock. Each trial consists of a fifteen-second warning tone (conditioned stimulus), continuing for an additional fifteen seconds accompanied by electric shock, (unconditioned stimulus). A response (jumping onto the exposed shelf of the upper chamber) occurring during the initial fifteen-second warning tone is considered an avoidance response, while a response occurring during shock delivery is considered an escape response. Trials are presented on a fixed interval schedule of one minute. The session consists of thirty-six trials. Animals are run twice weekly with control sessions always preceding a drug run, and with at least one day intervening. Compounds are administered i.p. or p.o. at appropriate pre-treatment times to a minimum of five rats at each dose level over a range of doses.
The following experimental parameters are recorded by computer: (1) the number of avoidance responses, (2) the number of escape responses, and (3) the number of trials in which no response occurred.
Response counts are summed over all subjects at a given dose. […] This number is expressed as a percentage of the total trials. Control performance is arbitrarily assigned a value of 100% for avoidance and the dose calculated to produce a 50% block in avoidance responding (AB50) is obtained from a dose-effect regression line fitted by the method of least squares. Potential anti-psychotic compounds suppress avoidance responding and increase escape responding.

[3] = system: 5-HT-1A serotonin receptor; assay: ex vivo inhibition of 5-HT-1A serotonin receptor binding (3H-8-OH-DPAT, hippocampal membranes); parameters: species or system rats; settings: at 1 μM of drug concentration
Description: Several groups of rats (4-6 rats/group) are injected with test compound or the appropriate vehicle. Thirty minutes later, unless otherwise noted, rats are decapitated and their brains removed. Various brain regions are dissected and rapidly frozen and maintained at -70° C. until used.
Hippocampal tissue is dissected and homogenized on ice in 40 vols of buffer (50 mM Tris HCl, pH=7.7) using a Polytron homogenizer at setting 5 for 3×15 sec bursts. The homogenate is then centrifuged at 20,000 rpm (RC5-B; 50,000 g) and the supernatant discarded. The pellet is resuspended in 40 vols of the same buffer and incubated at 37° C. for 10 minutes to aid in the removal of endogenous serotonin. the homogenate is then centrifuged (as above) and the supernatant discarded. […]
The homogenate (50 μl; 0.4-0.6 mg protein/sample) is incubated with 100 μl (1.5-1.8 nM) ^3 H-8-hydroxy-2-(di-n-propylamino)tetraline in a final volume of 2 ml of buffer for 10 minutes at 37° C. […] The vials are then counted in a Packard 460 CD scintillation counter.
Specific binding is calculated for each of the treatment protocols and is defined as total binding less binding in the presence of excess unlabeled serotonin (1 μM). Specific binding obtained in vehicle-treated rats is compared to that obtained in animals receiving a single or various doses of test compound and expressed as percent of control.

SMILES: O=C1CC2(CCCC2)CC(=O)N1CCCCN1CCN(c2ncccn2)CC1 [Buspirone, 8-[4-[4-(2-pyrimidinyl)-1-piperazinyl]butyl]-8-azaspiro[4.5]decane-7,9-dione, reference compound]
- ED50 ([1]; peroral administration, range in parentheses): 47.9 mg/kg

- displacement of specific 3H-8-OH-DPAT binding from hippocampal membranes [3]: 61%
SMILES: CC1CC(=O)N(CCCCN2CCN(c3cncc(Cl)n3)CC2)S(=O)(=O)N1 (stereo not drawn) [Example 1, 2-[4-[4-(6-Chloro-2-pyrazinyl)-1-piperazinyl]butyl]-5,6-dihydro-5-methyl-2H-1,2,6-thiadiazin-3(4H)-one 1,1 dioxide]
- Active at (dose), shelf-jump [2]: 40 mg/kg
- ED50 ([1]; perorally, unit inferred): 32.5 mg/kg

SMILES: O=C1N(CCCCN2CCN(c3ncccn3)CC2)S(=O)(=O)NC12CCCCC2 [Example 2, 3-[4-[4-(2-Pyrimidinyl)-1-piperazinyl]butyl]2-thia-1,3-diazaspiro[4,5]decan-4-one 2,2-dioxide]
- Active at (dose), shelf-jump [2]: 40 mg/kg

SMILES: CC1CC(=O)N(CCCCN2CCN(c3ncccn3)CC2)S(=O)(=O)N1 (stereo not drawn) [Example 3, 5,6-Dihydro-5-methyl-2-[4-[4-(2-pyrimidinyl)-1-piperazinyl]butyl]-2H-1,2,6-thiadiazin-3(4H)-one 1,1-dioxide]
- Active at (dose), shelf-jump [2]: 40 mg/kg
